{"source": "patent US12103952B2", "about": "“Methods for expressing proteins in axons” (Cornell University, priority 2010, dated 2024)", "tested_on": "pCREB", "assay": "Nuclear pCREB, pTrkA and pErk5 immunofluorescence after axonal NGF in compartmented cultures", "assay_type": "cell-based, rat", "details": "30 ng/ml NGF on axons, 20 min", "text": "FIGS. 9A-E are data showing that axonal CREB is required for CRE-dependent transcription and NGF-mediated DRG survival. (A) DRG axons in compartmented cultures were transfected with CREB siRNA in the axon compartment only, and CREB levels were detected using a CREB antibody. Axons crossing the compartment divider were retrogradely labeled with WGA-Alexa488. All compartments were maintained in NGF-containing media throughout the experiment. Scale bar, 50 μm. (B) Quantification of data in (A). Immunofluorescence levels in each compartment were normalized to fluorescence signals from cultures treated with non-targeting siRNA. *p<0.0001. Numbers on bars represent n axons per condition. […] After 48 hours, 30 ng/ml NGF was added to the axon compartment for 20 min, after which pCREB levels in nuclei were quantified by immunofluorescence. *p=0.0004. […]\nFIGS. 10A-G are data showing selective CREB knockdown in distal axons, but not proximal axons determined by compartmentalized siRNA transfection. […] (B) Quantification of data in (A). FISH levels in each compartment were normalized to fluorescence signals from cultures treated with non-targeting siRNA. β-actin mRNA FISH signals were unaffected by CREB-specific siRNA. *p<0.001. […] (C) Transfection was as in FIG. 9A, except CREB knockdown was assessed by Western blot instead of immunofluorescence. […]", "data": [{"substance": "NGF: nerve growth factor", "values": [{"measurement": "levels of pCREB in the nucleus", "value": "increased levels of pCREB in the nucleus"}]}]}
